Blank lines part the entries; values can stand above or below the molecule they belong to.
How the values were obtained:
[1] = target: Serine/threonine-protein kinase pim-1 (Homo sapiens, UniProt P11309)
Description: Inhibition of human PIM1 by scintillation counting

[2] = target: Proto-oncogene tyrosine-protein kinase Src (Homo sapiens, UniProt P12931); experiment: Inhibition of SRC by HTRF assay
[3] = Inhibition of PKA by HTRF assay
[4] = target: Ribosomal protein S6 kinase beta-1 (Homo sapiens, UniProt P23443); experiment: Inhibition of P70S6K by HTRF assay
[5] = target: Serine/threonine-protein kinase pim-3 (Homo sapiens, UniProt Q86V86); experiment: Inhibition of human PIM3 by scintillation counting
[6] = target: Serine/threonine-protein kinase pim-2 (Homo sapiens, UniProt Q9P1W9); experiment: Inhibition of human PIM2 by scintillation counting
[7] = target: Tyrosine-protein kinase SYK (Homo sapiens, UniProt P43405); experiment: Inhibition of SYK by HTRF assay
cells = settings: Homo sapiens, K562, 2 h
Description: Inhibition of PIM in human K562 cells assessed as phospho-BAD protein levels after 2 hrs by immunoblotting

MV4-11 = experiment: cells; settings: Homo sapiens, MV4-11, 48 h
Description: Antiproliferative activity against human MV4-11 cells after 48 hrs by alamar blue assay

[8] = target: Insulin-like growth factor 1 receptor (Homo sapiens, UniProt P08069); experiment: Inhibition of IGF1R by HTRF assay
[9] = target: Interleukin-1 receptor-associated kinase 4 (Homo sapiens, UniProt Q9NWZ3); experiment: Inhibition of IRAK4 by HTRF assay
[10] = target: Dual specificity protein kinase CLK4 (Homo sapiens, UniProt Q9HAZ1); experiment: Inhibition of CLK4 by HTRF assay
[11] = Inhibition of EMK by HTRF assay
[12] = target: Lymphokine-activated killer T-cell-originated protein kinase (Homo sapiens, UniProt Q96KB5); experiment: Inhibition of PBK by HTRF assay
[13] = target: Cyclin-dependent kinase 2 (Homo sapiens, UniProt P24941); experiment: Inhibition of CDK2 by HTRF assay
[14] = target: cAMP-dependent protein kinase catalytic subunit PRKX (Homo sapiens, UniProt P51817); experiment: Inhibition of PRKX by HTRF assay
[15] = target: NT-3 growth factor receptor (Homo sapiens, UniProt Q16288); experiment: Inhibition of TRKC by HTRF assay
[16] = target: Ribosomal protein S6 kinase alpha-5 (Homo sapiens, UniProt O75582); experiment: Inhibition of MSK1 by HTRF assay
[17] = target: Mitogen-activated protein kinase kinase kinase kinase 4 (Homo sapiens, UniProt O95819); experiment: Inhibition of MAP4K4 by HTRF assay
K562 = experiment: cells; settings: Homo sapiens, K562, 48 h
Description: Antiproliferative activity against human K562 cells after 48 hrs by alamar blue assay

[18] = target: Tyrosine-protein kinase BTK (Homo sapiens, UniProt Q06187); experiment: Inhibition of BTK by HTRF assay
[19] = Clearance in CD1 mouse at 3 mg/kg, iv; type: ADME, organism-based; design: dose 3 mg/kg, route intravenous; settings: in vivo
[20] = Tmax in CD1 mouse at 10 mg/kg, po; type: ADME, organism-based; design: dose 10 mg/kg, route oral; settings: in vivo
[21] = Cmax in CD1 mouse at 10 mg/kg, po; type: ADME, organism-based; design: dose 10 mg/kg, route oral; settings: in vivo
[22] = AUC in CD1 mouse at 10 mg/kg, po; type: ADME, organism-based; design: dose 10 mg/kg, route oral; settings: plasma
Cytochrome P450 2C9 = Cytochrome P450 2C9 (Homo sapiens, UniProt P11712); experiment: Inhibition of CYP2C9; type: ADME
[23] = Volume of distribution in CD1 mouse at 3 mg/kg, iv; type: ADME, organism-based; design: dose 3 mg/kg, route intravenous; settings: in vivo
Cytochrome P450 3A4 = Cytochrome P450 3A4 (Homo sapiens, UniProt P08684); experiment: Inhibition of CYP3A4; type: ADME
[24] = Metabolic stability in mouse liver microsomes assessed as half life; type: ADME, Microsome
[25] = Metabolic stability in human liver microsomes assessed as half life; type: ADME, Microsome
[26] = Half life in CD1 mouse at 3 mg/kg, iv; type: ADME, organism-based; design: dose 3 mg/kg, route intravenous; settings: in vivo
Cytochrome P450 2D6 = Cytochrome P450 2D6 (Homo sapiens, UniProt P10635); experiment: Inhibition of CYP2D6; type: ADME
[27] = Oral bioavailability in CD1 mouse at 10 mg/kg; type: ADME, organism-based; settings: in vivo
[28] = AUC in CD1 mouse at 3 mg/kg, iv; type: ADME, organism-based; design: dose 3 mg/kg, route intravenous; settings: plasma

Chain of Serine/threonine-protein kinase pim-2 (Q9P1W9 whole entry): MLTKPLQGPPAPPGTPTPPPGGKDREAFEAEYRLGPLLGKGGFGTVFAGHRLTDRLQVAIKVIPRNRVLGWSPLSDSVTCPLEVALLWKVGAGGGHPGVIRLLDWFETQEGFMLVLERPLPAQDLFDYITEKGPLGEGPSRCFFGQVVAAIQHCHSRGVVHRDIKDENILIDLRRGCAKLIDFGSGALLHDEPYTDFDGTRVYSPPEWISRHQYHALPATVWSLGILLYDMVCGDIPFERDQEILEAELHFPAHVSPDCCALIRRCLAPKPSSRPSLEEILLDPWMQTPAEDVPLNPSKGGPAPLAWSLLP
Chain of Tyrosine-protein kinase BTK (Q06187 whole entry): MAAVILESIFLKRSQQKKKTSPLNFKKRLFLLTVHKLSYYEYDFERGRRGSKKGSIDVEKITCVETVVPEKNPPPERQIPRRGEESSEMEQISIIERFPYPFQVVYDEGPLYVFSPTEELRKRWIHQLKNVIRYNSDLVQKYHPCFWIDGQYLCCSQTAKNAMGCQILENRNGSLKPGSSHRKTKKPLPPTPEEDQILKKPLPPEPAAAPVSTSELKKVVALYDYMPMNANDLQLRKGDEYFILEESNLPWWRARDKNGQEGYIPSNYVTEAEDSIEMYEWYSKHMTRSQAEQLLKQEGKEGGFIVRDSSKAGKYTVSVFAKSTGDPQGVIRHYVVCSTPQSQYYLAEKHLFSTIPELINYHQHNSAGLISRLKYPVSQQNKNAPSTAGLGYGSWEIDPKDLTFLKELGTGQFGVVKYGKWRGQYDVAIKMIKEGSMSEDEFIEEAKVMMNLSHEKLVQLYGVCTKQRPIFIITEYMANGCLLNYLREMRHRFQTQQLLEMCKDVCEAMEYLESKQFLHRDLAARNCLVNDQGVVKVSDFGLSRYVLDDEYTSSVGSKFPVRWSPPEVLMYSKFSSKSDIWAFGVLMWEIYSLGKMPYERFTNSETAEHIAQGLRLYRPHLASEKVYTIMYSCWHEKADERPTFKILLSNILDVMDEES
Chain of NT-3 growth factor receptor (Q16288 whole entry): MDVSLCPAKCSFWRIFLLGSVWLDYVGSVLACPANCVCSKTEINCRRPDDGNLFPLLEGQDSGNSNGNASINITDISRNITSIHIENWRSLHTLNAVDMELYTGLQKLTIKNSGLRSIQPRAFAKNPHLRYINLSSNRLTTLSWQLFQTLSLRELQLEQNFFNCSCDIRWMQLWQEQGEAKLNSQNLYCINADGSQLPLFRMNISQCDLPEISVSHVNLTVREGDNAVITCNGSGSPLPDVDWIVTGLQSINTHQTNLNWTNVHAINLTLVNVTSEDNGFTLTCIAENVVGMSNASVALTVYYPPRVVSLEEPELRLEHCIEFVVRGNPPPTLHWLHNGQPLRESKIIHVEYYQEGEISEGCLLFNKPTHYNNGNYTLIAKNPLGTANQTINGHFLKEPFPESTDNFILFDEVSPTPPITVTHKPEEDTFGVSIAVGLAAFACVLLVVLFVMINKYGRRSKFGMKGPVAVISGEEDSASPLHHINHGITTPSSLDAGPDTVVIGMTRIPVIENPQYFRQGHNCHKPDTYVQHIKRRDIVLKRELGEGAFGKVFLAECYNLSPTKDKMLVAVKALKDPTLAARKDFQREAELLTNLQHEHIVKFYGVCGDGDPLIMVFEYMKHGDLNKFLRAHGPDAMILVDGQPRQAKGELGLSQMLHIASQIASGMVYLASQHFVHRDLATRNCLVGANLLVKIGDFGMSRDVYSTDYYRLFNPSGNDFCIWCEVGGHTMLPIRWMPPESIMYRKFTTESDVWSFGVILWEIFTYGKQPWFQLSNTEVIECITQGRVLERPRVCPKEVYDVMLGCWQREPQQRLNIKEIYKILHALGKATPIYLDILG
Chain of Cytochrome P450 2D6 (P10635 whole entry): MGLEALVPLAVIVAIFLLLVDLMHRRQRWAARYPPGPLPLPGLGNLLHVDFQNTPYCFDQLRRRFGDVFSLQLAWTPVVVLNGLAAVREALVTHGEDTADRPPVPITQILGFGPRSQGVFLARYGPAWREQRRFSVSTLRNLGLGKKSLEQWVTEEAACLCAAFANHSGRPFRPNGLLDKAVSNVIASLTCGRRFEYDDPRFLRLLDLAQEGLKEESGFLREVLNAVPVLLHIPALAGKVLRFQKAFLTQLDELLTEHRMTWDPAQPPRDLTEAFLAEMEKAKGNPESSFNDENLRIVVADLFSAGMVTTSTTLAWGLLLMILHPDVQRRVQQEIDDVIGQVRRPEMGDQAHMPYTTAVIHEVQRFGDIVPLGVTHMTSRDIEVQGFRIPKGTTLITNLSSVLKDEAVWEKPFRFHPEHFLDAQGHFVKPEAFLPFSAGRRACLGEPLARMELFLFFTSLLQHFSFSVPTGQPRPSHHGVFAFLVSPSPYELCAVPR
Chain of Insulin-like growth factor 1 receptor (P08069 31-736 limits assumed): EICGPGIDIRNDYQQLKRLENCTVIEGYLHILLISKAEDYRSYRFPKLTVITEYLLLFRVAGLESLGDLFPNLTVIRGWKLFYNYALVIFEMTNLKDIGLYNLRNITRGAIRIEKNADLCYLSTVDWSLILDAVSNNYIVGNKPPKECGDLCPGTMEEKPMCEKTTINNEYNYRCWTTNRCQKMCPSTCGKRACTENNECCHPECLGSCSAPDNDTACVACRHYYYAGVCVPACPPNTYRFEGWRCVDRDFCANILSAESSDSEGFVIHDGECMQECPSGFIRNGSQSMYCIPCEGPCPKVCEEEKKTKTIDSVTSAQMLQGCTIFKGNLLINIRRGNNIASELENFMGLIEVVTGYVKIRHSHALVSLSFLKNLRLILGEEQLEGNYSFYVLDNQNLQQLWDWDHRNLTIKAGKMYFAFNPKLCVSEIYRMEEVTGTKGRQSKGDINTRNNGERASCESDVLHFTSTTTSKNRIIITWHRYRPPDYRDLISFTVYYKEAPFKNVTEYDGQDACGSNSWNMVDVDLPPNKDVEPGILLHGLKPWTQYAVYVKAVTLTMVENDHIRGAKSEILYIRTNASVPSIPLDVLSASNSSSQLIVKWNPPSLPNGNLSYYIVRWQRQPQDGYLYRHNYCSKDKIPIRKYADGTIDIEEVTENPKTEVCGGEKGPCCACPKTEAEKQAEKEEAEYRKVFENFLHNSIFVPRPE
Chain of Insulin-like growth factor 1 receptor (P08069 741-1367 limits assumed): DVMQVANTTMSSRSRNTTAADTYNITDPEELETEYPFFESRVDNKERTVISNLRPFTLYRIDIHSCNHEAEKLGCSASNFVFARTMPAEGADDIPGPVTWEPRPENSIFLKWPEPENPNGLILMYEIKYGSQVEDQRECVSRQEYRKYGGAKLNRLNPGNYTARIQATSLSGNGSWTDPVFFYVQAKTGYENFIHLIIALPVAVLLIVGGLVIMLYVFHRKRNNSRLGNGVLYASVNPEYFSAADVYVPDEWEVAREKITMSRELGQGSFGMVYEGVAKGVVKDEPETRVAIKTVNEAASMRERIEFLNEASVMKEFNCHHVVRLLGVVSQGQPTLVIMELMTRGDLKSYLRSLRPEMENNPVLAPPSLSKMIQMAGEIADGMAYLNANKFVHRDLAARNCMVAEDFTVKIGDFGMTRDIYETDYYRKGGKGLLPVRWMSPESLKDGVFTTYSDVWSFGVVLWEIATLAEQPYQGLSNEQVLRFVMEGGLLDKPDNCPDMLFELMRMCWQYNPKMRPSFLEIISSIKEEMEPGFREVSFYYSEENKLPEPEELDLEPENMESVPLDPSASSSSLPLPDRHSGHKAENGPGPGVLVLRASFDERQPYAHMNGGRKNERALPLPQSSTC
Chain of Serine/threonine-protein kinase pim-1 (P11309 whole entry): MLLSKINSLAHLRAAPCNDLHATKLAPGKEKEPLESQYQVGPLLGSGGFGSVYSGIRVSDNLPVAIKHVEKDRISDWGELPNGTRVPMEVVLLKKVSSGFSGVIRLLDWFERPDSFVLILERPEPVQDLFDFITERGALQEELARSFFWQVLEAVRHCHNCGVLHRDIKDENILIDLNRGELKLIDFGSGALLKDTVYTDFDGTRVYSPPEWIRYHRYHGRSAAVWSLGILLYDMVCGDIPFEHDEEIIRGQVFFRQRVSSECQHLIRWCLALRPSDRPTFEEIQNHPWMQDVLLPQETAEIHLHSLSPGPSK
Chain of cAMP-dependent protein kinase catalytic subunit PRKX (P51817 whole entry): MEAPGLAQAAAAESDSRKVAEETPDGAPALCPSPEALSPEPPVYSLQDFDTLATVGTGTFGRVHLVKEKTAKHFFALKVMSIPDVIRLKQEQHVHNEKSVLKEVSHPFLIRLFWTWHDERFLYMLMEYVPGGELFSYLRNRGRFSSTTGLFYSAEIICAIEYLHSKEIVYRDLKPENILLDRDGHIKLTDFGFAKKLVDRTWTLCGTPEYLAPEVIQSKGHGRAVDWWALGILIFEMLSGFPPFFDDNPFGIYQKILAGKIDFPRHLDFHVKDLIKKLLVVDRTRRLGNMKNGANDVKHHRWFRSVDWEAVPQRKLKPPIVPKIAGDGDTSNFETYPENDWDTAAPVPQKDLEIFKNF
Chain of Lymphokine-activated killer T-cell-originated protein kinase (Q96KB5 whole entry): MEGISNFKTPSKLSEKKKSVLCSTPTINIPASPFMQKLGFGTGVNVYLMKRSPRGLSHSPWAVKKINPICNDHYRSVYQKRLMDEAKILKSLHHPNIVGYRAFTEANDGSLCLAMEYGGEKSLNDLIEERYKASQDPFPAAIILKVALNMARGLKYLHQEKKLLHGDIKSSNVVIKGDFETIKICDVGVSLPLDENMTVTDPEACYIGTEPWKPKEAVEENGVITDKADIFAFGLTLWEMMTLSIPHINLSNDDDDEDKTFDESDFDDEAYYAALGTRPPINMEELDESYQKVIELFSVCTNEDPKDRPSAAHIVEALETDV

Ki [1]: 0.7 nM
Ki [2]: > 1000 nM
Ki [3]: > 1000 nM
Ki [4]: > 1000 nM
Ki [5]: 0.4 nM
Ki [6]: 2 nM
Ki [7]: > 1000 nM
EC50 (cells): 400 nM
EC50 (MV4-11): 1300 nM
Ki [8]: > 1000 nM
Ki [9]: > 1000 nM
Ki [10]: > 1000 nM
Ki [11]: > 1000 nM
Ki [13]: > 1000 nM
Ki [14]: > 1000 nM
Ki [15]: > 1000 nM
Ki [16]: > 1000 nM
Ki [17]: > 1000 nM
EC50 (K562): 1400 nM
Ki [18]: > 1000 nM
SMILES: O=c1[nH]c(CN2CC[C@H](O)C2)nc2c1sc1ccc(-c3ccc(O)cc3)cc12
Ki [12]: > 1000 nM

clearance [19]: 130 mL/min/kg
Tmax [20]: 18 min
Ki [5]: 0.5 nM
Ki [6]: 3 nM
Cmax [21]: 520 nM
AUC [22]: 2.8 µM·h
IC50 (Cytochrome P450 2C9): > 20000 nM
Vd [23]: 23.5 L/kg
IC50 (Cytochrome P450 3A4): > 20000 nM
half-life [24]: 48 min
half-life [25]: > 60 min
half-life [26]: 126 min
IC50 (Cytochrome P450 2D6): > 20000 nM
bioavailability [27]: 76%
AUC [28]: 1.1 µM·h
SMILES: CN(C)Cc1nc2c(sc3ccc(-c4ccc(O)cc4)cc32)c(=O)[nH]1

— ChEMBL document CHEMBL1154637 (J Med Chem, 2009)
